How the values were obtained:
[1] = system: human leukaemia KG-1 subcutaneous xenograft; assay: In vivo efficacy in leukaemia model, subcutaneous xenograft; details: KG-1 xenograft, CB-17 SCID mice, oral 25 BID, 50 and 100 mg/kg QD, 21 days
Experimental: The anti-tumour efficacy of the compound of Example 1 was measured in human leukaemia KG-1 subcutaneous xenograft models in CB-17 SCID mice.
Mice grouping was on day 0 (DO) and Example 1 25 BID*21 group was started on the evening of day 0 (DO), other groups were started on the morning of day 1 (D1). At the 21 days of the treatment, 8 h and 24h post the last dose, 4 mice each from vehicle group, Example 1 25 mg/kg BID group and Example 1 50 mg/kg group were subjected tumour collection.
Animals: Female mice (Mus musculus) strain: CB-17 SCID; 6-8 weeks old Body weight: 18-20 g; were obtained from Shanghai Lingchang BioTech Co., Ltd. Of the 59 obtained, 40 were grouped for efficacy study. The mice were kept in individual ventilation cages at constant temperature (20˜26° C.) and humidity (40-70%) with 5 animals in each cage. […]
Tumour Measurements and the Endpoints: The major endpoint was tumour growth delay or cure. Tumour size was measured thrice weekly in two dimensions using a caliper, and the volume was expressed in mm^3 using the formula: V=0.5 a×b^2 where a and b were the long and short diameters of the tumour, respectively. […] TGI was calculated according to the following equation: […]

[2] = system: Naïve CD4+ T cells, iTreg cells; assay: CD4+ T cell differentiation under iTreg conditions (FoxP3, FACS); type: cell-based, mice; details: 12.5 nM
Experimental: Naïve CD4^+ T cells were purified from mice spleens and lymph nodes using positive selection by magnetic beads (CD4 L3T4 Kit, Miltenyi Biotec, UK). The purified T cells were activated by plate-bound αCD3ε (1 μg/ml; 2C11) and αCD28 (3 μg/ml; 37.51) in the presence or absence of the compound of Example 1 or Cyclosporin A (Sigma Aldrich), and cultured for 72 hrs under Th1 conditions (IL-12 [20 ng/ml]+αIL-4 (11B1) [10 μg/ml]), 72 hrs under Th17 conditions (αIFNγ [10 μg/ml]+αIL-4 [5 μg/ml]+IL-6 [[…]]+TGFβ(5 ng/ml)), and 96 hrs under iTreg conditions (TGFβ (5 ng/ml)) at 37° C.
Intracellular protein expression was evaluated by first restimulating the cells with phorbol-12-myristate 13-acetate (PMA)(10 ng/ml) (Sigma Aldrich), ionomycin (1 μg/ml) (Sigma Aldrich) and Brefeldin A (5 μg/ml) (eBioscience) for 4-6 hours at 37° C. […] Fc block (93) and all fluorescence dye labelled antibodies used αCD4 (GK1.5), αIFNγ (XMG1.2), αIL-17a (17B7), αFOXP3 (NRRF-30; FJK-16S) were purchased from eBiosciences (Thermo Fisher, UK). Multi-parameter analysis was performed on an LSR/Fortessa (Becton Dickinson Biosciences (BD)) and analysed using FlowJo software (Tree Star).

Q: CN1CCOc2c1c(N[C@H]1CC[C@@](C)(O)CC1)nn1c(-c3cccc(OC(F)(F)F)c3)nnc21 [Example 1, 1-Methyl-4-[6-methyl-3-(3-trifluoromethoxy-phenyl)-7,8-dihydro-6H-9-oxa-1,2,3a,4,6-pentaaza-cyclopenta[a]naphthalen-5-ylamino]-cyclohexanol] was tested. Which “anti-tumour efficacy (tumour volume)” value [1] did it give?
A: effective

Q: What about the “generation of immunoregulatory iTreg cells” value [2] of the same compound?
A: enhancing the generation

Q: What about the “expression of the transcription factor FoxP3” value ([2]; 96 hrs iTreg conditions, FACS) of the same compound?
A: significantly increased expression
